Data taken from US20250228239A1, “MOLECULES HAVING PESTICIDAL UTILITY, AND INTERMEDIATES, COMPOSITIONS, AND PROCESSES, RELATED THERETO” (priority 2024, published 2025).
Like-named read-outs stand apart in the source and are kept apart here.

Columns and labels:
Type in all cases: in vivo
[1] = system: Cabbage Looper (Trichoplusia ni, TRIPNI); experiment: Bioassays on Cabbage Looper (CL), 128-well diet tray assay; conditions: Trichoplusia ni; for mortality at 50 µg/cm2: 168 h, second instar larvae, 50 μg/cm^2 of test molecule on artificial diet, 25° C., five to seven days, average of eight wells, read-out: CL % Control (or Mortality) rating
Procedure, shortened: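 Test molecule was dissolved in 90:10 acetone-water, applied to artificial diet at 50 μg/cm^2 and allowed to dry. Second-instar larvae were then added, one to five per well, and trays held at 25° C for five to seven days before mortality was scored and averaged.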

[2] = system: Yellow Fever Mosquito (Aedes aegypti, AEDSAE); conditions: for YFM rating: Table ABC / ABC-DP rating; for YFM % Control (or Mortality) rating: about 1 day-old larvae, 4000 ppm master solution diluted with 90:10 water/acetone, 15 μL per well plus 220 μL larval mixture, 3 days
Procedure, shortened: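 Rating-scale grades reflect larval mortality scored per well after 3 days at room temperature under non-evaporative lids. Larvae (~1 day old, hatched overnight in liver-powder water) were added to six daughter plates per compound, prepared from a 4000 ppm DMSO stock diluted in 90:10 water/acetone.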

[3] = system: Beet Armyworm (Spodoptera exigua, LAPHEG); experiment: Bioassays on Beet Armyworm (BAW), 128-well diet tray assay; conditions: Spodoptera exigua; for mortality at 50 µg/cm2: 168 h, second instar larvae, 50 μg/cm^2 of test molecule on artificial diet, 25° C., five to seven days, average of eight wells, read-out: BAW % Control (or Mortality) rating
Procedure, shortened: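 Mortality of second-instar larvae (1–5/well) on artificial diet treated with 50 μg/cm^2 compound, read after 5–7 days at 25° C.; values are means of eight wells.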

[4] = Cabbage Looper, Table ABC / ABC-DP rating, read-out: CL rating
[5] = Beet Armyworm, Table ABC / ABC-DP rating, read-out: BAW rating
[6] = Cabbage Looper, rating class, read-out: CL
[7] = Yellow Fever Mosquito, rating class
[8] = Beet Armyworm, rating class, read-out: BAW
[9] = Table ABC: Biological Results, species CL, read-out: CL
[10] = Table ABC: Biological Results, species YFM
[11] = Table ABC: Biological Results, species BAW, read-out: BAW

SMILES	pest or weed control at 50 µg/cm2 [1, 4] [%]	YFM rating ([2]; Yellow Fever Mosquito)	pest or weed control at 50 µg/cm2 [3, 5] [%]	pest or weed control at 50 µg/cm2 [1, 9] [%]	YFM [2, 10]	pest or weed control at 50 µg/cm2 [3, 11] [%]	other results
Cc1cc(F)ccc1NNC(=O)c1cc(NC(=O)[C@H]2[C@H](c3cc(Cl)cc(Cl)c3)C2(Cl)Cl)ccc1Cl (relative stereo) [F2562, trans-2,2-Dichloro-N-(4-chloro-3-(2-(4-fluoro-2-methylphenyl)hydrazine-1-carbonyl)phenyl)-3-(3,5-dichlorophenyl)cyclopropane-1-carboxamide]	50 to 100	A (80–100)	50 to 100	–	–	–	mortality at 50 µg/cm2 [1]: 50 to 100%; YFM % Control (or Mortality) rating [2]: A (80–100); mortality at 50 µg/cm2 [3]: 50 to 100%
O=C(NNc1ccc(OC(F)(F)C(F)(F)F)cc1)c1cc(NC(=O)[C@H]2[C@H](c3cc(Cl)cc(Cl)c3)C2(Cl)Cl)ccc1Cl (relative stereo) [F2565, trans-2,2-Dichloro-N-(4-chloro-3-(2-(4-(perfluoroethoxy)phenyl)hydrazine-1-carbonyl)phenyl)-3-(3,5-dichlorophenyl)cyclopropane-1-carboxamide]	50 to 100	–	50 to 100	–	–	–	mortality at 50 µg/cm2 [1]: 50 to 100%; YFM % Control (or Mortality) rating [2]: D (No activity noticed in this bioassay); mortality at 50 µg/cm2 [3]: 50 to 100%
O=C(NCC(F)(F)F)c1cc(NC(=O)[C@H]2[C@H](c3cc(C(F)(F)F)cc(Cl)c3F)C2(Cl)Cl)ccc1Cl (relative stereo) [F2012, trans-2-Chloro-5-(2,2-dichloro-3-(3-chloro-2-fluoro-5-(trifluoromethyl)phenyl)cyclopropane-1-carboxamido)-N-(2,2,2-trifluoroethyl)benzamide]	50 to 100	A (80–100)	50 to 100	–	–	–	–
O=C(Nc1c(F)ccc(NC(=O)c2cc(NC(=O)[C@H]3[C@H](c4ccc(F)c(C(F)(F)F)c4)C3(Cl)Cl)ccc2Cl)c1F)c1ccon1 [F1818, N-(3-(2-Chloro-5-((1R,3R)-2,2-dichloro-3-(4-fluoro-3-(trifluoromethyl)phenyl)cyclopropane-1-carboxamido)benzamido)-2,6-difluorophenyl)isoxazole-3-carboxamide]	50 to 100	A (80–100)	50 to 100	–	–	–	–
O=C(Nc1ccccc1)c1cc(NC(=O)[C@H]2[C@H](c3ccc(F)c(C(F)(F)F)c3)C2(Cl)Cl)c(F)cc1Cl [F1723, 2-Chloro-5-((1R,3R)-2,2-dichloro-3-(4-fluoro-3-(trifluoromethyl)phenyl)cyclopropane-1-carboxamido)-4-fluoro-N-phenylbenzamide]	–	–	–	–	–	–	pest or weed control at 50 µg/cm2 [1, 6]: 50 to 100%; YFM [2, 7]: A (80–100); pest or weed control at 50 µg/cm2 [3, 8]: 50 to 100%
O=C(Nc1ccc(F)c(NC(=O)C(F)F)c1F)c1cc(NC(=O)[C@H]2[C@H](c3ccc(F)c(Cl)c3)C2(Cl)Cl)ccc1Cl [F1270, 2-Chloro-5-((1R,3R)-2,2-dichloro-3-(3-chloro-4-fluorophenyl)cyclopropane-1-carboxamido)-N-(3-(2,2-difluoroacetamido)-2,4-difluorophenyl)benzamide]	–	–	–	50 to 100	A (80–100)	50 to 100	–
O=C(NNCC1CC1)c1cc(NC(=O)[C@H]2[C@H](c3cc(Cl)cc(Cl)c3)C2(Cl)Cl)ccc1Cl (relative stereo) [F2549, trans-2,2-Dichloro-N-(4-chloro-3-(2-(cyclopropylmethyl)hydrazine-1-carbonyl)phenyl)-3-(3,5-dichlorophenyl)cyclopropane-1-carboxamide]	50 to 100	A (80–100)	50 to 100	–	–	–	–
CC(=O)N(C)NC(=O)c1cc(NC(=O)[C@H]2[C@H](c3cc(Cl)cc(Cl)c3)C2(Cl)Cl)ccc1Cl (relative stereo) [F2522, trans-N-(3-(2-Acetyl-2-methylhydrazine-1-carbonyl)-4-chlorophenyl)-2,2-dichloro-3-(3,5-dichlorophenyl)cyclopropane-1-carboxamide]	50 to 100	A (80–100)	50 to 100	–	–	–	–
O=C(NNc1ccc(F)cc1F)c1cc(NC(=O)[C@H]2[C@H](c3cc(Cl)cc(Cl)c3)C2(Cl)Cl)ccc1Cl (relative stereo) [F2559, trans-2,2-Dichloro-N-(4-chloro-3-(2-(2,4-difluorophenyl)hydrazine-1-carbonyl)phenyl)-3-(3,5-dichlorophenyl)cyclopropane-1-carboxamide]	50 to 100	B (More than 0 – Less than 80)	50 to 100	–	–	–	–
O=C(NCCC(F)(F)F)c1c(Cl)ccc(NC(=O)[C@H]2[C@H](c3ccc(F)c(Cl)c3)C2(Cl)Cl)c1Cl (relative stereo) [F2024, trans-2,6-Dichloro-3-(2,2-dichloro-3-(3-chloro-4-fluorophenyl)cyclopropane-1-carboxamido)-N-(3,3,3-trifluoropropyl)benzamide]	50 to 100	A (80–100)	50 to 100	–	–	–	–
CN(NC(=O)c1cc(NC(=O)[C@H]2[C@H](c3cc(Cl)cc(Cl)c3)C2(Cl)Cl)ccc1Cl)c1cc(C(F)(F)F)ccn1 (relative stereo) [F2507, trans-2,2-Dichloro-N-(4-chloro-3-(2-methyl-2-(4-(trifluoromethyl)pyridin-2-yl)hydrazine-1-carbonyl)phenyl)-3-(3,5-dichlorophenyl)cyclopropane-1-carboxamide]	50 to 100	A (80–100)	50 to 100	–	–	–	–
Cc1c(N)ccc(NC(=O)c2cc(NC(=O)[C@H]3[C@H](c4ccc(F)c(C(F)(F)F)c4)C3(Cl)Cl)ccc2Cl)c1C [F1389, N-(4-Amino-2,3-dimethylphenyl)-2-chloro-5-((1R,3R)-2,2-dichloro-3-(4-fluoro-3-(trifluoromethyl)phenyl)cyclopropane-1-carboxamido)benzamide]	–	–	–	50 to 100	A (80–100)	50 to 100	–
CC(C)(C)OC(=O)Nc1c(F)ccc(NC(=O)c2cc(NC(=O)[C@H]3[C@H](c4cc(Cl)cc(Cl)c4)C3(F)F)ccc2Cl)c1F (relative stereo) [F1070, trans-tert-Butyl (3-(2-chloro-5-(3-(3,5-dichlorophenyl)-2,2-difluorocyclopropane-1-carboxamido)benzamido)-2,6-difluorophenyl)carbamate]	–	–	–	50 to 100	A (80–100)	50 to 100	–
O=C(Nc1ccc(F)cc1F)c1cc(NC(=O)[C@H]2[C@H](c3cccc(S(F)(F)(F)(F)F)c3)C2(Cl)Cl)ccc1Cl (relative stereo) [F1090, trans-2-Chloro-5-(2,2-dichloro-3-(3-(pentafluoro-λ^6-sulfanyl)phenyl)cyclopropane-1-carboxamido)-N-(2,4-difluorophenyl)benzamide]	–	–	–	50 to 100	A (80–100)	50 to 100	–
O=C(Nc1ccc(F)c(NC(=O)C2CCCO2)c1F)c1cc(NC(=O)[C@H]2[C@H](c3ccc(Cl)c(C(F)(F)F)c3)C2(Cl)Cl)ccc1Cl (stereo partly drawn) [F1661, N-(3-(2-Chloro-5-((1R,3R)-2,2-dichloro-3-(4-chloro-3-(trifluoromethyl)phenyl)cyclopropane-1-carboxamido)benzamido)-2,6-difluorophenyl)tetrahydrofuran-2-carboxamide]	–	–	–	–	–	–	pest or weed control at 50 µg/cm2 [1, 6]: 50 to 100%; YFM [2, 7]: A (80–100); pest or weed control at 50 µg/cm2 [3, 8]: 50 to 100%
O=C(Nc1ccc(F)c(NC(=O)C(F)(F)Cl)c1F)c1cc(NC(=O)[C@H]2[C@H](c3ccc(F)c(C(F)(F)F)c3)C2(Cl)Cl)ccc1Cl [F1170, 2-Chloro-N-(3-(2-chloro-2,2-difluoroacetamido)-2,4-difluorophenyl)-5-((1R,3R)-2,2-dichloro-3-(4-fluoro-3-(trifluoromethyl)phenyl)cyclopropane-1-carboxamido)benzamide]	–	–	–	50 to 100	A (80–100)	50 to 100	–
Cc1cc(N)ccc1NC(=O)c1cc(NC(=O)[C@H]2[C@H](c3cc(Cl)cc(Cl)c3)C2(Cl)Cl)ccc1Cl (relative stereo) [DP4, trans-N-(4-Amino-2-methylphenyl)-2-chloro-5-(2,2-dichloro-3-(3,5-dichlorophenyl)cyclopropane-1-carboxamido)benzamide]	50 to 100	A (80–100)	50 to 100	–	–	–	mortality at 50 µg/cm2 [1]: 50 to 100%; YFM % Control (or Mortality) rating [2]: A (80–100); mortality at 50 µg/cm2 [3]: 50 to 100%
Cc1cc(NCc2ccc(O)cc2)ccc1NC(=O)c1cc(NC(=O)[C@H]2[C@H](c3cc(Cl)cc(Cl)c3)C2(Cl)Cl)ccc1Cl (relative stereo) [F1353, trans-2-Chloro-5-(2,2-dichloro-3-(3,5-dichlorophenyl)cyclopropane-1-carboxamido)-N-(4-((4-hydroxybenzyl)amino)-2-methylphenyl)benzamide]	–	–	–	50 to 100	A (80–100)	50 to 100	–
